Assay results reported in the NIST ThermoML archive (doi:10.1016/j.fluid.2015.01.002).

What was measured:
[1] = 298.15 K; 101.33 kPa; Liquid; Vibrating tube method
[2] = refractive index (Na D-line) (dimensionless); conditions: 298.15 K; 101.33 kPa; Liquid; Standard Abbe refractometry
[3] = xn = mol fraction of the nth substance listed; conditions: 298.15 K, 101 kPa, Liquid, Vibrating tube method
[4] = refractive index (Na D-line) (dimensionless); xn = mol fraction of the nth substance listed; conditions: 298.15 K, 101 kPa, Liquid, Standard Abbe refractometry

Cc1ccc(C)cc1 [1,4-dimethylbenzene]
Conditions	mass density [kg/m3]	refractive index
[1]	856.78	–
[2]	–	1.49281

Cc1ccc(C)cc1 [1,4-dimethylbenzene] + CC#N
Conditions	mass density, [3] [kg/m3]	refractive index, [4]
x1 = 0.05	785.5	1.3575
x1 = 0.1	793.4	1.3717
x1 = 0.2	806.77	1.3975
x1 = 0.3	817.69	1.4181
x1 = 0.4	826.78	1.4353
x1 = 0.5	834.35	1.4498
x1 = 0.6	840.73	1.4642
x1 = 0.7	846.09	1.4757
x1 = 0.8001	850.43	1.4835
x1 = 0.9001	854.1	1.4889
x1 = 0.9503	855.52	1.4913

COCCO [2-methoxyethan-1-ol]
Conditions	mass density [kg/m3]	refractive index
[1]	959.73	–
[2]	–	1.39981

COCCO [2-methoxyethan-1-ol] + Cc1ccc(C)cc1
Conditions	mass density, [3] [kg/m3]	refractive index, [4]
x2 = 0.0499	952.02	1.4069
x2 = 0.0999	944.39	1.4136
x2 = 0.1999	930.07	1.4253
x2 = 0.3	917.28	1.4367
x2 = 0.3999	905.75	1.4462
x2 = 0.5001	895.38	1.4557
x2 = 0.6	885.92	1.4641
x2 = 0.6999	877.19	1.4717
x2 = 0.7999	869.23	1.4793
x2 = 0.8999	862.2	1.4862
x2 = 0.9499	859.28	1.4895

COCCO [2-methoxyethan-1-ol] + Cc1ccccc1
Conditions	mass density, [3] [kg/m3]	refractive index, [4]
x2 = 0.05	953.61	1.4048
x2 = 0.0998	947.42	1.4113
x2 = 0.1999	935.21	1.4233
x2 = 0.3001	923.65	1.434
x2 = 0.4	912.84	1.4437
x2 = 0.4999	902.65	1.453
x2 = 0.6	893.14	1.4616
x2 = 0.7001	884.22	1.4701
x2 = 0.8	875.94	1.4782
x2 = 0.9	868.48	1.486
x2 = 0.9498	865.12	1.4899
